Legend:
TRAC locus = assay: Genomic editing of the TRAC locus in primary human CD3+ T cells by RNP electroporation (NGS: % indels, % frameshift edits, indel pattern); type: cell-based; details: dgRNA/Cas9 RNP by electroporation, target TRAC; for mean FS edit (%): frameshift edits in primary human CD3+ T cells; for mean total % edit: primary human CD3+ T cells, mean of at least 3 experiments;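 for all read-outs here: total edit is the insertion or deletion frequency at TRAC, and the frameshift value is the share of those indels that shift the coding frame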
Description: (§1) FIG. 12: Mean (n≥3) editing of CRISPR systems with dgRNAs as indicated to TRAC in HEK cells (stably expressing Cas9) or primary human CD3+ T cells (delivery of dgRNA:Cas9 RNP by electroporation).
FIG. 33C: Genomic editing of the TRAC locus resulting from human primary T cell electroporation with RNP containing the indicated gRNA targeting the TRAC locus is shown. The frequency of insertions or deletions is indicated (% indels) and the percentage of these edits that result in frameshifting of the coding sequence is shown (% frameshift edits).
Data for each experiment are the average from triplicate PCR products.

TRAC = assay: Editing of TRAC by dgRNAs in HEK cells stably expressing Cas9 (NGS); type: cell-based, human; details: dgRNA delivered to HEK cells stably expressing Cas9, target TRAC, mean of at least 3 experiments
Description: as §1

PDCD1 = assay: NGS editing of PDCD1 by dgRNA in HEK cells stably expressing Cas9; type: cell-based, human; details: at least 3 experiments;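 note: dgRNA lipofected into Cas9-expressing HEK cells, lysed after 24 h, target amplicon sequenced, editing = reads carrying insertions or deletions as percent of all reads including wild type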
Description: Transfection of Cas9GFP-expressing HEK293 cells (HEK-293_Cas9GFP) was used for primary screening of target specific crRNAs. […] Selected crRNAs were chemically synthesized and delivered in a 96 well format. HEK-293-Cas9GFP cells were transfected with target crRNAs comprising a flagpole region of SEQ ID NO: 6607 in a 1:1 ratio with stock trRNA of SEQ ID NO: 6660. The transfection was mediated using lipofection technology according to manufacturer's protocol (DharmaFECT Duo, GE LifeSciences; or RNAiMax, LifeTechnologies). Transfected cells were lysed 24 h following lipofection and editing (e.g., cleavage) was detected within lysates with the T7E1 assay and/or next generation sequencing (NGS; below).
PCR primers were first designed around the target site, and the genomic area of interest PCR amplified. Additional PCR was performed according to manufacturer's protocols (Illumina) to add the necessary chemistry for sequencing. The amplicons were then sequenced on an Illumina MiSeq instrument. The reads were then aligned to the human reference genome (e.g., hg38) after eliminating those having low quality scores. From the resulting files containing the reads mapped to the reference genome (BAM files), reads which overlap the target region of interest were selected and the number of wild type reads versus the number of reads which contain an insertion or deletion was calculated. The editing percentage was then defined as the total number of reads with insertions or deletions over the total number of reads, including wild type. To determine the pattern of insertions and/or deletions that resulted from the edit, the aligned reads with indels were selected and the number of a reads with a given indel were summed.
Editing of CRISPR systems containing dgRNA molecules comprising targeting domains to sequences of PDCD1 were tested for editing in HEK (gRNA delivered to cells stably expressing Cas9) and CD3+ T cells (gRNA and Cas9 delivered as RNP) according to the methods described herein.
All mean editing % are as measured by NGS and are based on at least 3 experiments.

Substance | mean FS edit (%) (TRAC locus) | mean total % edit (TRAC locus) [%] | mean % edit (TRAC) [%] | HEK (NGS) % Editing Mean (PDCD1) [%]
AAAGCUGCCCUUACCUGGGC (chemistry not given here; listed as Homo sapiens) [CR000976] | 1.7 | 1.8 | 2.8 | –
AACAAAUGUGUCACAAAGUA (chemistry not given here; listed as Homo sapiens) [CR000966] | 21.0 | 22.0 | 65.2 | –
AACGAGAAUCAUCUGCCUGC (chemistry not given here; listed as Homo sapiens) [CR000945] | 2.2 | 2.3 | 32.3 | –
AAGGUUCAGAUCAGAAGAGG (chemistry not given here; listed as Homo sapiens) [CR000921] | 11.3 | 12.7 | 58.3 | –
ACAAGUGCCCACAGGAAGCC (chemistry not given here; listed as Homo sapiens) [CR000930] | 7.1 | 9.9 | 12.2 | –
ACCAACUCACACAUACAGCC (chemistry not given here; listed as Homo sapiens) [CR000949] | 2.5 | 2.5 | 30.2 | –
ACCAGAGAUGUCUGUGCAGG (targeting domain within guide RNA, chemistry not given here, further chemistry not given here; listed as Homo sapiens) [CR000935] | – | – | 54.2 | –
ACCCGGCCACUUUCAGGAGG (chemistry not given here; listed as Homo sapiens) [CR000989] | 18.2 | 28.2 | 54.5 | –
AGAGCAACAGUGCUGUGGCC (chemistry not given here; listed as Homo sapiens) [CR000970] | 9.3 | 10.9 | 13.4 | –
AGAGUGAUUAUUAUUUAUUC (chemistry not given here; listed as Homo sapiens) [CR000941] | 7.6 | 9.6 | 33.4 | –
AGCAGCUUUCACCUCCUUGG (chemistry not given here; listed as Homo sapiens) [CR001009] | 22.8 | 27.3 | 65.3 | –
AGGAAGGAGCGAGGGAGCAC (chemistry not given here; listed as Homo sapiens) [CR000996] | 8.6 | 11.1 | 52.3 | –
AGGCUUCUCACCCUGCAGCA (chemistry not given here; listed as Homo sapiens) [CR000923] | 32.7 | 37.3 | 67.4 | –
AGUUGGUGGCAUUGCCGGGG (chemistry not given here; listed as Homo sapiens) [CR001015] | 20.4 | 21.8 | 35.9 | –
AUAUGUGCAGCUCAGGGUCA (chemistry not given here; listed as Homo sapiens) [CR000937] | 10.8 | 15.8 | 50.9 | –
AUCCUCCUCCUGAAAGUGGC (chemistry not given here; listed as Homo sapiens) [CR000987] | 18.2 | 20.6 | 39.6 | –
CAAUGCAGAGGAAGGAGCGA (chemistry not given here; listed as Homo sapiens) [CR000997] | 6.4 | 6.7 | 11.6 | –
CACACCUCUUGUCUUUGGAA (chemistry not given here; listed as Homo sapiens) [CR000954] | 2.6 | 2.7 | 22.3 | –
CACCAAAGCUGCCCUUACCU (chemistry not given here; listed as Homo sapiens) [CR000977] | 35.7 | 44.2 | 80.6 | –

Substance | mean FS edit (%) (TRAC locus) | mean total % edit (TRAC locus) [%] | mean % edit (TRAC) [%] | HEK (NGS) % Editing Mean (PDCD1) [%]
CCACUUUCAGGAGGAGGAUU (chemistry not given here; listed as Homo sapiens) [CR000986] | 14.8 | 36.4 | 68.6 | –
CCAGGGCAUGCCAUGCUCAC (chemistry not given here; listed as Homo sapiens) [CR000928] | 14.6 | 18.1 | 54.2 | –
CCUGUGAGCAUGGCAUGCCC (chemistry not given here; listed as Homo sapiens) [CR000927] | 22.6 | 23.8 | 68.7 | –
CR000895: dgRNA targeting domain to PDCD1 (guide CACCAGGGUUUGGAACUGGC; targeting domain within dual guide RNA, chemistry not given here, further chemistry not given here; listed as Homo sapiens) | – | – | – | 49
CR000896: dgRNA targeting domain to PDCD1 (guide CGGCCAGUUCCAAACCCUGG; targeting domain within dual guide RNA, chemistry not given here, further chemistry not given here; listed as Homo sapiens) | – | – | – | 42
CR000897: dgRNA targeting domain to PDCD1 (guide CAACCACCAGGGUUUGGAAC; targeting domain within dual guide RNA, chemistry not given here, further chemistry not given here; listed as Homo sapiens) | – | – | – | 26
CR000898: dgRNA targeting domain to PDCD1 (guide CAGUUCCAAACCCUGGUGGU; targeting domain within dual guide RNA, chemistry not given here, further chemistry not given here; listed as Homo sapiens) | – | – | – | 11
CR000899: dgRNA targeting domain to PDCD1 (guide CGACACCAACCACCAGGGUU; targeting domain within dual guide RNA, chemistry not given here, further chemistry not given here; listed as Homo sapiens) | – | – | – | 5
CR000903: dgRNA targeting domain to PDCD1 (guide CGCCCACGACACCAACCACC; targeting domain within dual guide RNA, chemistry not given here, further chemistry not given here; listed as Homo sapiens) | – | – | – | 54
CR000904: dgRNA targeting domain to PDCD1 (guide CUGGUGGUUGGUGUCGUGGG; targeting domain within dual guide RNA, chemistry not given here, further chemistry not given here; listed as Homo sapiens) | – | – | – | 70
CR000914: dgRNA targeting domain to PDCD1 (guide CUGCAGGGACAAUAGGAGCC; targeting domain within dual guide RNA, chemistry not given here, further chemistry not given here; listed as Homo sapiens) | – | – | – | 5
CR000915: dgRNA targeting domain to PDCD1 (guide ACAAUAGGAGCCAGGCGCAC; targeting domain within dual guide RNA, chemistry not given here, further chemistry not given here; listed as Homo sapiens) | – | – | – | 35
CR000916: dgRNA targeting domain to PDCD1 (guide CAGGGGCUGGCCGGUGCGCC; targeting domain within dual guide RNA, chemistry not given here, further chemistry not given here; listed as Homo sapiens) | – | – | – | 5
CR000917: dgRNA targeting domain to PDCD1 (guide AAAAGAGUGAGACUCACCAG; targeting domain within dual guide RNA, chemistry not given here, further chemistry not given here; listed as Homo sapiens) | – | – | – | 43
CR000918: dgRNA targeting domain to PDCD1 (guide GAAAAGAGUGAGACUCACCA; targeting domain within dual guide RNA, chemistry not given here, further chemistry not given here; listed as Homo sapiens) | – | – | – | 50
CR000919: dgRNA targeting domain to PDCD1 (guide GGAAAAGAGUGAGACUCACC; targeting domain within dual guide RNA, chemistry not given here, further chemistry not given here; listed as Homo sapiens) | – | – | – | 42
CUACCACCUCUGUGCCCCCC (chemistry not given here; listed as Homo sapiens) [CR001012] | 22.9 | 31.5 | 64.5 | –
CUGACAGGUUUUGAAAGUUU (chemistry not given here; listed as Homo sapiens) [CR000981] | 25.1 | 37.6 | 70.0 | –
GCCUCCUGCACAGACAUCUC (targeting domain within guide RNA, chemistry not given here, further chemistry not given here; listed as Homo sapiens) [CR000936] | – | – | 59.7 | –

From patent US12037583B2, “Compositions and methods for immunooncology” (Novartis AG, priority 2015, dated 2024)
